{"source": "PubChem BioAssay AID2060492", "about": "(Molecular Pharmacology Branch, DTP, NCI, 2025);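 note: spheroids exposed to compounds for seven days before readout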", "tested_on": "695427-040-R-J1-PDC complex spheroids, viability percent T/C", "assay": "Anticancer human tumor 695427-040-R-J1-PDC patient-derived colon adenocarcinoma cell line growth inhibition [GQUAD]", "details": "for IC50: curve of first compound; for viability, T/C: stronger effect = lower value", "source_text": "DNA G-quadruplex Stabilizer Agents in Combinations in Complex Spheroids\nA high-throughput screen of multi-cell type tumor spheroids was designed to identify active combinations of DNA G-quadruplex stabilizer agents and targeted small molecules. Complex spheroids include a stromal component modeled by human endothelial cells (HUVEC) and fibroblasts modeled by human mesenchymal stem cells (MSCs). The concentration ranges selected for each drug and investigational agent were based upon clinically achievable concentrations if the clinical Cmax of the agent was known.\nCompounds. The drugs and investigational agents: pidnarulex (CX-5461; NSC782164), APTO-253 (NSC789042), BRACO-19 (NSC847499), peposertib (NSC802822), ceralasertib (NSC780249), elimusertib (NSC800525), camonsertib (NSC841442), AZD-1390 (NSC803789), olaparib (NSC753686), talazoparib (NSC767125), ART-558 (NSC835418), sotorasib (NSC818433), MRTX-1133 (NSC836407), SN-38 (NSC673596), topotecan (NSC609699), etoposide (NSC141540), doxorubicin (NSC123127), gemcitabine (NSC613327), 5-fluorouracil (NSC19893), paclitaxel (NSC125973), vemurafenib (NSC761431), panobinostat (NSC761190), R-306465 (JNJ-16241199; NSC773264), adavosertib (NSC754352), TP-3654 (NSC805149), carboplatin (NSC241240), KSQ-4279 (NSC840948), and staurosporine (NSC755774) were obtained from the National Cancer Institute (NCI) Developmental Therapeutics Program Chemical Repository (34). The FDA-approved anticancer drug set is available from the NCI Developmental Therapeutics Program. […] The stock solutions were prepared in dimethyl sulfoxide (DMSO, Sigma-Aldrich, St. Louis, MO, cat. D2650) at 800-fold the tested concentration and stored at -70 degrees C prior to their use. All drugs and investigational agents were tested over a range starting from a high concentration at or near the clinical Cmax and decreasing in half-log increments. If the clinical Cmax for an agent had not been determined, the highest concentration tested was 10 microM.\n2.3 Cell Culture. All cells were maintained in an incubator at 37 degrees C and 5% CO2 with 95% humidity. The PDC lines were cultured according to standard operating procedures established by the NCI PDMR. All PDCs were thawed and cultured in Matrigel-coated flasks prepared with a working solution of 1X Ham's F-12 nutrient mix, without supplementation (Invitrogen, cat. 11765054), 100 U/mL penicillin-streptomycin (Invitrogen, cat. 15140122), and 2.5% Matrigel (Corning Inc., cat. 354248) for the first three passages. The 857933-349-R-J2-PDC line was cultured in 6C/Colon 1B media, which includes advanced DMEM/F-12 (Thermo Fisher Scientific, cat. 12634028), 10 mM HEPES (Thermo Fisher Scientific, cat. 15630080), 1X GlutaMAX supplement (Thermo Fisher Scientific, cat. 35050061), 0.1 mg/mL primocin (InvivoGen, cat. ant-pm-2), 10% defined fetal bovine serum, heat inactivated (HyClone Laboratories Inc., cat. SH30070.03HI), 50% L-WRN conditioned media (ATCC, cat. CRL-3276), 1.25 mM N-Acetyl-L-cysteine (Sigma-Aldrich, cat. A9165), 10 mM nicotinamide (Sigma-Aldrich, cat. N0636), 1X B-27 supplement (Thermo Fisher Scientific, cat. 17504044), 1X N-2 supplement (Thermo Fisher Scientific, cat. 17502048), 10 microM Y-27632 dihydrochloride (Tocris Bioscience, cat. 1254), and 50 ng/mL human EGF recombinant protein (Thermo Fisher Scientific, cat. PHG0311). The 485176-168-R4-J1-PDC line was cultured in Panc media, which includes all 6C/Colon 1B media components plus 100 ng/mL human FGF-10 (Thermo Fisher Scientific, cat. 100-26), 500 nM SB-431542 (Selleckchem, cat. S1067), and gastrin (Tocris, cat. 3006).\n[…]", "data": [{"smiles": "O=C(c1cc(Cc2n[nH]c(=O)c3ccccc23)ccc1F)N1CCN(C(=O)C2CC2)CC1", "note": "+ Cc1cnc(CNC(=O)c2c(=O)c3ccc(N4CCCN(C)CC4)nc3n3c2sc2ccccc23)cn1", "values": [{"measurement": "IC50", "setting": "second compound 0.0316 µM", "result": "> 10", "unit": "µM"}, {"measurement": "IC50", "setting": "second compound 0.1 µM", "result": "> 10", "unit": "µM"}, {"measurement": "IC50", "setting": "second compound 0.316 µM", "result": "> 10", "unit": "µM"}, {"measurement": "IC50", "setting": "second compound 1 µM", "result": "> 10", "unit": "µM"}, {"measurement": "IC50", "setting": "second compound 3.16 µM", "result": "> 10", "unit": "µM"}, {"measurement": "IC50", "setting": "second compound 10 µM", "result": "< 0.0316", "unit": "µM"}, {"measurement": "viability, T/C", "setting": "second compound 0.0316 µM, first compound 0.0316 µM", "result": 94.2, "unit": "%"}, {"measurement": "viability, T/C", "setting": "second compound 0.0316 µM, first compound 0.1 µM", "result": 101, "unit": "%"}, {"measurement": "viability, T/C", "setting": "second compound 0.0316 µM, first compound 0.316 µM", "result": 93.5, "unit": "%"}, {"measurement": "viability, T/C", "setting": "second compound 0.0316 µM, first compound 1 µM", "result": 77.7, "unit": "%"}, {"measurement": "viability, T/C", "setting": "second compound 0.0316 µM, first compound 3.16 µM", "result": 83.5, "unit": "%"}, {"measurement": "viability, T/C", "setting": "second compound 0.0316 µM, first compound 10 µM", "result": 90.9, "unit": "%"}, {"measurement": "viability, T/C", "setting": "second compound 0.1 µM, first compound 0.0316 µM", "result": 102, "unit": "%"}, {"measurement": "viability, T/C", "setting": "second compound 0.1 µM, first compound 0.1 µM", "result": 79, "unit": "%"}, {"measurement": "viability, T/C", "setting": "second compound 0.1 µM, first compound 0.316 µM", "result": 95.5, "unit": "%"}, {"measurement": "viability, T/C", "setting": "second compound 0.1 µM, first compound 1 µM", "result": 57, "unit": "%"}, {"measurement": "viability, T/C", "setting": "second compound 0.1 µM, first compound 3.16 µM", "result": 92.7, "unit": "%"}, {"measurement": "viability, T/C", "setting": "second compound 0.1 µM, first compound 10 µM", "result": 87.3, "unit": "%"}, {"measurement": "viability, T/C", "setting": "second compound 0.316 µM, first compound 0.0316 µM", "result": 95.4, "unit": "%"}, {"measurement": "viability, T/C", "setting": "second compound 0.316 µM, first compound 0.1 µM", "result": 63, "unit": "%"}, {"measurement": "viability, T/C", "setting": "second compound 0.316 µM, first compound 0.316 µM", "result": 91.9, "unit": "%"}, {"measurement": "viability, T/C", "setting": "second compound 0.316 µM, first compound 1 µM", "result": 74.7, "unit": "%"}, {"measurement": "viability, T/C", "setting": "second compound 0.316 µM, first compound 3.16 µM", "result": 86.8, "unit": "%"}, {"measurement": "viability, T/C", "setting": "second compound 0.316 µM, first compound 10 µM", "result": 80.8, "unit": "%"}, {"measurement": "viability, T/C", "setting": "second compound 1 µM, first compound 0.0316 µM", "result": 60.3, "unit": "%"}, {"measurement": "viability, T/C", "setting": "second compound 1 µM, first compound 0.1 µM", "result": 69.6, "unit": "%"}, {"measurement": "viability, T/C", "setting": "second compound 1 µM, first compound 0.316 µM", "result": 53.8, "unit": "%"}, {"measurement": "viability, T/C", "setting": "second compound 1 µM, first compound 1 µM", "result": 57.4, "unit": "%"}, {"measurement": "viability, T/C", "setting": "second compound 1 µM, first compound 3.16 µM", "result": 71, "unit": "%"}, {"measurement": "viability, T/C", "setting": "second compound 1 µM, first compound 10 µM", "result": 66.2, "unit": "%"}, {"measurement": "viability, T/C", "setting": "second compound 3.16 µM, first compound 0.0316 µM", "result": 52.9, "unit": "%"}, {"measurement": "viability, T/C", "setting": "second compound 3.16 µM, first compound 0.1 µM", "result": 53.3, "unit": "%"}, {"measurement": "viability, T/C", "setting": "second compound 3.16 µM, first compound 0.316 µM", "result": 53.5, "unit": "%"}, {"measurement": "viability, T/C", "setting": "second compound 3.16 µM, first compound 1 µM", "result": 46.6, "unit": "%"}, {"measurement": "viability, T/C", "setting": "second compound 3.16 µM, first compound 3.16 µM", "result": 62.6, "unit": "%"}, {"measurement": "viability, T/C", "setting": "second compound 3.16 µM, first compound 10 µM", "result": 51.1, "unit": "%"}, {"measurement": "viability, T/C", "setting": "second compound 10 µM, first compound 0.0316 µM", "result": 32.1, "unit": "%"}, {"measurement": "viability, T/C", "setting": "second compound 10 µM, first compound 0.1 µM", "result": 53.5, "unit": "%"}, {"measurement": "viability, T/C", "setting": "second compound 10 µM, first compound 0.316 µM", "result": 49.9, "unit": "%"}, {"measurement": "viability, T/C", "setting": "second compound 10 µM, first compound 1 µM", "result": 48, "unit": "%"}, {"measurement": "viability, T/C", "setting": "second compound 10 µM, first compound 3.16 µM", "result": 48.1, "unit": "%"}, {"measurement": "viability, T/C", "setting": "second compound 10 µM, first compound 10 µM", "result": 40.2, "unit": "%"}]}]}
